Experimental data: patent US20260207563A1, “UREA COMPOUNDS AS ACTIVATORS OF POTASSIUM CHANNELS KV7.2/7.3 USEFUL IN THE TREATMENT OF CNS AND PNS DISORDERS” (ANGELINI PHARMA S.P.A., priority 2022, published 2026)

Legend:
Format in all cases: cell-based
[1] = target: T1, heteromeric KV7.2/KV7.3 channels (KCNQ2, KCNQ3) (Homo sapiens, UniProt O43525+O43526); assay: Automated patch-clamp (Sophion Qube 384) potency assay against KV7.2/KV7.3 channels; conditions: CHO-K1/Kv7.2/Kv7.3 cells; for EC50: EC50 from concentration-response of shift in Vhalf, 10 concentrations up to 30 μM, read-out: Kv7.2/7.3 EC50; for Kv7.2/7.3 ΔV1/2: maximal shift in the Vhalf from the top of the curve
T1 construct: expressed in transfected cells; host or cells: CHO-K1
In short: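 Activator potency: EC50 from 4-parameter logistic fit of mean Vhalf shift across ten 1-in-3 dilutions starting at 30 μM (n=4), with DMSO (typically 0.3%) control. Currents recorded by leak-subtracted whole-cell clamp of stable CHO-K1 KV7.2/KV7.3 cells, held at −80 mV, stepped −100 to +20 mV then 0 mV tails.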

[2] = target: T2, homomeric KV7.4 channel (KCNQ4) (Homo sapiens, UniProt P56696); assay: Automated patch-clamp (Qube) counter-screening assay against KV7.4 channel; conditions: CHO-K1 cells expressing KV7.4; class by maximal shift in the Vhalf at 30 μM
T2 construct: host or cells: CHO-K1
In short: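 EC50 and maximal shift in half-activation voltage come from 4-parameter logistic fits of mean Vhalf shifts. The series had ten 1-in-3 concentrations, highest 30 μM, each tested in quadruplicate. Recordings used automated Qube patch clamp on a stable CHO-K1 line expressing KCNQ4, and selectivity was judged from the 30 μM Vhalf shift.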

[3] = target: T3, heteromeric KV7.3/KV7.5 channel (KCNQ3, KCNQ5) (Homo sapiens, UniProt O43525+Q9NR82); assay: Automated patch-clamp counter-screening against KV7.3/KV7.5 channel; conditions: HEK293 cells expressing Kv7.3/KV7.5; class by maximal shift in the Vhalf at 30 μM
T3 construct: host or cells: HEK293
In short: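 Potency came from a 4-parameter logistic fit of mean voltage-of-half-activation shifts, yielding EC50 and maximal shift; selectivity was judged on the shift at 30 μM. Compounds were applied at ten 3-fold dilutions from 30 μM in quadruplicate to HEK293 cells stably carrying Kv7.3 with tet-inducible Kv7.5.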

Row | SMILES | EC50 [1] | Kv7.2/7.3 ΔV1/2 [1] | Kv7.4 selectivity criteria [2] | Kv7.3/7.5 selectivity criteria [3]
1 | O=C(NCc1ccnc(OCC(F)(F)F)c1)N[C@@H]1CCc2c(Cl)cccc21 [Compound 118] | 1.55 µM | 41.97 mV | B (Non-selective compounds showed Kv7.4 and/or Kv7.3/7.5 ΔV1/2 higher than 15 mV (letter B in table 3)) | B (Non-selective compounds showed Kv7.4 and/or Kv7.3/7.5 ΔV1/2 higher than 15 mV (letter B in table 3))
2 | O=C(NCc1ccnc(OCC(F)(F)F)c1)N[C@@H]1CCc2cc(F)c(F)cc21 [Compound 119] | 1.08 µM | 36.41 mV | A (Selective compounds showed Kv7.4 and/or Kv7.3/7.5 ΔV1/2 equal to or lower than 15 mV (letter A in table 3)) | B (Non-selective compounds showed Kv7.4 and/or Kv7.3/7.5 ΔV1/2 higher than 15 mV (letter B in table 3))
3 | O=C(NCc1ccnc(OCC(F)(F)F)c1)N[C@H]1CCc2cc(F)c(F)cc21 [Compound 120] | 0.276 µM | 16.57 mV | B (Non-selective compounds showed Kv7.4 and/or Kv7.3/7.5 ΔV1/2 higher than 15 mV (letter B in table 3)) | A (Selective compounds showed Kv7.4 and/or Kv7.3/7.5 ΔV1/2 equal to or lower than 15 mV (letter A in table 3))
4 | O=C(NCc1ccnc(OCC(F)(F)F)c1)N[C@@H]1CCc2c(Cl)cccc21 [Compound 121] | 1.56 µM | 38.54 mV | B (Non-selective compounds showed Kv7.4 and/or Kv7.3/7.5 ΔV1/2 higher than 15 mV (letter B in table 3)) | B (Non-selective compounds showed Kv7.4 and/or Kv7.3/7.5 ΔV1/2 higher than 15 mV (letter B in table 3))
5 | COc1ccc2c(c1)CCC2NC(=O)NCc1ccnc(OCC(F)(F)F)c1 (stereo not shown) [Compound 122] | 2.71 µM | 26.22 mV | A (Selective compounds showed Kv7.4 and/or Kv7.3/7.5 ΔV1/2 equal to or lower than 15 mV (letter A in table 3)) | A (Selective compounds showed Kv7.4 and/or Kv7.3/7.5 ΔV1/2 equal to or lower than 15 mV (letter A in table 3))
6 | O=C(NCc1ccnc(OCC(F)(F)F)c1)N[C@H]1c2ccccc2C[C@@H]1O [Compound 123] | 6.67 µM | 25.23 mV | A (Selective compounds showed Kv7.4 and/or Kv7.3/7.5 ΔV1/2 equal to or lower than 15 mV (letter A in table 3)) | A (Selective compounds showed Kv7.4 and/or Kv7.3/7.5 ΔV1/2 equal to or lower than 15 mV (letter A in table 3))
7 | CC(F)(F)c1cc(CNC(=O)N[C@@H]2CCc3ccc(F)cc32)ccn1 [Compound 124] | 11.7 µM | 18.78 mV | A (Selective compounds showed Kv7.4 and/or Kv7.3/7.5 ΔV1/2 equal to or lower than 15 mV (letter A in table 3)) | A (Selective compounds showed Kv7.4 and/or Kv7.3/7.5 ΔV1/2 equal to or lower than 15 mV (letter A in table 3))
8 | COc1cc2c(cc1F)CCC2NC(=O)NCc1ccnc(OCC(F)(F)F)c1 (stereo not shown) [Compound 125] | 0.683 µM | 18.25 mV | A (Selective compounds showed Kv7.4 and/or Kv7.3/7.5 ΔV1/2 equal to or lower than 15 mV (letter A in table 3)) | A (Selective compounds showed Kv7.4 and/or Kv7.3/7.5 ΔV1/2 equal to or lower than 15 mV (letter A in table 3))
9 | Cc1ccc2c(c1)[C@H](NC(=O)NCc1ccnc(OCC(F)(F)F)c1)CC2 [Compound 126] | 3.08 µM | 42.02 mV | B (Non-selective compounds showed Kv7.4 and/or Kv7.3/7.5 ΔV1/2 higher than 15 mV (letter B in table 3)) | B (Non-selective compounds showed Kv7.4 and/or Kv7.3/7.5 ΔV1/2 higher than 15 mV (letter B in table 3))
10 | O=C(NCc1ccnc(OCC(F)(F)F)c1)N[C@@H]1CCc2cc(Cl)ccc21 [Compound 127] | 1.6 µM | 30.45 mV | B (Non-selective compounds showed Kv7.4 and/or Kv7.3/7.5 ΔV1/2 higher than 15 mV (letter B in table 3)) | B (Non-selective compounds showed Kv7.4 and/or Kv7.3/7.5 ΔV1/2 higher than 15 mV (letter B in table 3))
11 | COc1ccc2c(c1)[C@@H](NC(=O)NCc1ccnc(OCC(F)(F)F)c1)CC2 [Compound 128] | 0.397 µM | 15.68 mV | A (Selective compounds showed Kv7.4 and/or Kv7.3/7.5 ΔV1/2 equal to or lower than 15 mV (letter A in table 3)) | A (Selective compounds showed Kv7.4 and/or Kv7.3/7.5 ΔV1/2 equal to or lower than 15 mV (letter A in table 3))
12 | Cc1ccc2c(c1)CCC2NC(=O)NCc1ccnc(OCC(F)(F)F)c1 (stereo not shown) [Compound 129] | 0.931 µM | 14.07 mV | A (Selective compounds showed Kv7.4 and/or Kv7.3/7.5 ΔV1/2 equal to or lower than 15 mV (letter A in table 3)) | A (Selective compounds showed Kv7.4 and/or Kv7.3/7.5 ΔV1/2 equal to or lower than 15 mV (letter A in table 3))
13 | O=C(NCc1ccnc(OCC(F)(F)F)c1)N[C@@H]1CCOc2ccccc21 [Compound 130] | 1.61 µM | 40.52 mV | B (Non-selective compounds showed Kv7.4 and/or Kv7.3/7.5 ΔV1/2 higher than 15 mV (letter B in table 3)) | B (Non-selective compounds showed Kv7.4 and/or Kv7.3/7.5 ΔV1/2 higher than 15 mV (letter B in table 3))
14 | O=C(NCc1ccnc(OCC(F)(F)F)c1)Nc1cccc2c1OCC2 [Compound 131] | 0.756 µM | 22.47 mV | B (Non-selective compounds showed Kv7.4 and/or Kv7.3/7.5 ΔV1/2 higher than 15 mV (letter B in table 3)) | A (Selective compounds showed Kv7.4 and/or Kv7.3/7.5 ΔV1/2 equal to or lower than 15 mV (letter A in table 3))
15 | O=C(NCc1ccnc(OCC(F)(F)F)c1)N[C@H]1CCOc2ccccc21 [Compound 132] | 3.24 µM | 19.47 mV | A (Selective compounds showed Kv7.4 and/or Kv7.3/7.5 ΔV1/2 equal to or lower than 15 mV (letter A in table 3)) | A (Selective compounds showed Kv7.4 and/or Kv7.3/7.5 ΔV1/2 equal to or lower than 15 mV (letter A in table 3))
16 | O=C(NCc1ccnc(OCC(F)(F)F)c1)N[C@@H]1COc2ccccc21 [Compound 133] | 2.8 µM | 34.47 mV | A (Selective compounds showed Kv7.4 and/or Kv7.3/7.5 ΔV1/2 equal to or lower than 15 mV (letter A in table 3)) | B (Non-selective compounds showed Kv7.4 and/or Kv7.3/7.5 ΔV1/2 higher than 15 mV (letter B in table 3))
17 | COc1ccc2c(c1)[C@H](NC(=O)NCc1ccnc(OCC(F)(F)F)c1)CC2 [Compound 134] | 3.09 µM | 43.25 mV | A (Selective compounds showed Kv7.4 and/or Kv7.3/7.5 ΔV1/2 equal to or lower than 15 mV (letter A in table 3)) | B (Non-selective compounds showed Kv7.4 and/or Kv7.3/7.5 ΔV1/2 higher than 15 mV (letter B in table 3))
18 | O=C(NCc1ccnc(OCC(F)(F)F)c1)NC1CCc2c(F)cc(F)cc21 (stereo not shown) [Compound 135] | 0.351 µM | 22.58 mV | A (Selective compounds showed Kv7.4 and/or Kv7.3/7.5 ΔV1/2 equal to or lower than 15 mV (letter A in table 3)) | A (Selective compounds showed Kv7.4 and/or Kv7.3/7.5 ΔV1/2 equal to or lower than 15 mV (letter A in table 3))
19 | CC1Cc2cccc(NC(=O)NCc3ccnc(OCC(F)(F)F)c3)c2O1 (stereo not shown) [Compound 136] | 0.565 µM | 16.11 mV | A (Selective compounds showed Kv7.4 and/or Kv7.3/7.5 ΔV1/2 equal to or lower than 15 mV (letter A in table 3)) | A (Selective compounds showed Kv7.4 and/or Kv7.3/7.5 ΔV1/2 equal to or lower than 15 mV (letter A in table 3))
20 | O=C(NCc1ccnc(OCC(F)(F)F)c1)NC1CCc2ccccc21 (stereo not shown) [Compound 137] | 0.849 µM | 22.07 mV | B (Non-selective compounds showed Kv7.4 and/or Kv7.3/7.5 ΔV1/2 higher than 15 mV (letter B in table 3)) | B (Non-selective compounds showed Kv7.4 and/or Kv7.3/7.5 ΔV1/2 higher than 15 mV (letter B in table 3))
21 | O=C(NCc1ccnc(OCC(F)(F)F)c1)N[C@H]1CCCc2ccccc21 [Compound 138] | 0.195 µM | 17.98 mV | A (Selective compounds showed Kv7.4 and/or Kv7.3/7.5 ΔV1/2 equal to or lower than 15 mV (letter A in table 3)) | A (Selective compounds showed Kv7.4 and/or Kv7.3/7.5 ΔV1/2 equal to or lower than 15 mV (letter A in table 3))
22 | CC1CC(NC(=O)NCc2ccnc(OCC(F)(F)F)c2)c2ccccc21 (stereo not shown) [Compound 139] | 2.24 µM | 34.89 mV | A (Selective compounds showed Kv7.4 and/or Kv7.3/7.5 ΔV1/2 equal to or lower than 15 mV (letter A in table 3)) | A (Selective compounds showed Kv7.4 and/or Kv7.3/7.5 ΔV1/2 equal to or lower than 15 mV (letter A in table 3))
